Experimental data taken from ChEMBL document CHEMBL1201861, “Genomics of Drug Sensitity in Cancer screening data, Wellcome Trust Sanger Institute”.

Key:
Assay in all cases: cells
RS4-11 = format: functional, cell-based, Homo sapiens; conditions: Homo sapiens, RS4-11;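 further: growth inhibition of RS4-11 cells, read out by a cell viability assay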
Description: SANGER: Inhibition of human RS4-11 cell growth in a cell viability assay.

SJSA-1 = format: functional, cell-based, Homo sapiens; conditions: Homo sapiens, SJSA-1;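 further: growth inhibition of human SJSA-1 cells, read out through a cell viability measurement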
Description: SANGER: Inhibition of human SJSA-1 cell growth in a cell viability assay.

MZ1-PC = format: functional, cell-based, Homo sapiens; conditions: Homo sapiens, MZ1-PC;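 further: cell viability assay measuring growth inhibition of human MZ1-PC cells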
Description: SANGER: Inhibition of human MZ1-PC cell growth in a cell viability assay.

MZ7-mel = format: functional, cell-based, Homo sapiens; conditions: Homo sapiens, MZ7-mel;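 further: growth inhibition of human MZ7-mel cells, measured by a cell viability assay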
Description: SANGER: Inhibition of human MZ7-mel cell growth in a cell viability assay.

A498 = format: functional, cell-based, Homo sapiens; conditions: Homo sapiens, A498;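 further: growth inhibition of human A498 cells, read out with a cell viability assay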
Description: SANGER: Inhibition of human A498 cell growth in a cell viability assay.

SK-MEL-2 = format: functional, cell-based, Homo sapiens; conditions: Homo sapiens, SK-MEL-2;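 further: growth inhibition of human SK-MEL-2 cells measured with a cell viability assay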
Description: SANGER: Inhibition of human SK-MEL-2 cell growth in a cell viability assay.

NB5 = format: functional, cell-based, Homo sapiens; conditions: Homo sapiens, NB5;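 further: growth inhibition of NB5 cells, read out as cell viability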
Description: SANGER: Inhibition of human NB5 cell growth in a cell viability assay.

TE-9 = format: functional, cell-based, Homo sapiens; conditions: Homo sapiens, TE-9;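 further: cell growth inhibition, measured with a cell viability readout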
Description: SANGER: Inhibition of human TE-9 cell growth in a cell viability assay.

DMS-79 = format: functional, cell-based, Homo sapiens; conditions: Homo sapiens, DMS-79;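 further: growth inhibition measured with a cell viability assay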
Description: SANGER: Inhibition of human DMS-79 cell growth in a cell viability assay.

Ramos-2G6-4C10 = format: functional, cell-based, Homo sapiens; conditions: Homo sapiens, Ramos-2G6-4C10;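 further: growth inhibition of the cell line, measured by a cell viability read-out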
Description: SANGER: Inhibition of human Ramos-2G6-4C10 cell growth in a cell viability assay.

RXF 393 = format: functional, cell-based, Homo sapiens; conditions: Homo sapiens, RXF 393;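 further: growth inhibition of human RXF 393 cells, read out with a cell viability assay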
Description: SANGER: Inhibition of human RXF393 cell growth in a cell viability assay.

NCI-H446 = format: functional, cell-based, Homo sapiens; conditions: Homo sapiens, NCI-H446;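 further: growth inhibition of NCI-H446 cells determined by a cell viability assay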
Description: SANGER: Inhibition of human NCI-H446 cell growth in a cell viability assay.

SW684 = format: functional, cell-based, Homo sapiens; conditions: Homo sapiens, SW684;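 further: growth inhibition of human SW684 cells, measured by a cell viability assay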
Description: SANGER: Inhibition of human SW684 cell growth in a cell viability assay.

SK-PN-DW = format: functional, cell-based, Homo sapiens; conditions: Homo sapiens, SK-PN-DW;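 further: growth inhibition measured with a viability assay on these cells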
Description: SANGER: Inhibition of human SK-PN-DW cell growth in a cell viability assay.

TE-6 = format: functional, cell-based, Homo sapiens; conditions: Homo sapiens, TE-6;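 further: growth inhibition of TE-6 cells, read out with a cell viability assay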
Description: SANGER: Inhibition of human TE-6 cell growth in a cell viability assay.

NCI-H69 = format: functional, cell-based, Homo sapiens; conditions: Homo sapiens, NCI-H69;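 further: growth inhibition of the cell line, read out with a cell viability assay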
Description: SANGER: Inhibition of human NCI-H69 cell growth in a cell viability assay.

HT = format: functional, cell-based, Homo sapiens; conditions: Homo sapiens, HT
Description: SANGER: Inhibition of human HT cell growth in a cell viability assay.

DB = format: functional, cell-based, Homo sapiens; conditions: Homo sapiens, DB
Description: SANGER: Inhibition of human DB cell growth in a cell viability assay.

U-87 MG = format: functional, cell-based, Homo sapiens, U-87MG ATCC; conditions: Homo sapiens, U-87 MG;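 further: growth inhibition of the cells measured with a viability assay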
Description: SANGER: Inhibition of human U-87-MG cell growth in a cell viability assay.

NH-12 = format: functional, cell-based, Homo sapiens; conditions: Homo sapiens, NH-12;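 further: growth inhibition of NH-12 cells, read out with a cell viability assay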
Description: SANGER: Inhibition of human NH-12 cell growth in a cell viability assay.

HT-144 = format: functional, cell-based, Homo sapiens; conditions: Homo sapiens, HT-144
Description: SANGER: Inhibition of human HT-144 cell growth in a cell viability assay.

D-247MG = format: functional, cell-based, Homo sapiens; conditions: Homo sapiens, D-247MG
Description: SANGER: Inhibition of human D-247MG cell growth in a cell viability assay.

D-263MG = format: functional, cell-based, Homo sapiens; conditions: Homo sapiens, D-263MG
Description: SANGER: Inhibition of human D-263MG cell growth in a cell viability assay.

NB10 = format: functional, cell-based, Homo sapiens; conditions: Homo sapiens, NB10;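 further: growth inhibition of NB10 cells, read out by a cell viability assay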
Description: SANGER: Inhibition of human NB10 cell growth in a cell viability assay.

NCI-H2126 = format: functional, cell-based, Homo sapiens; conditions: Homo sapiens, NCI-H2126;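 further: growth inhibition of the cancer cell line, determined with a cell viability readout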
Description: SANGER: Inhibition of human NCI-H2126 cell growth in a cell viability assay.

Calu-6 = format: functional, cell-based, Homo sapiens; conditions: Homo sapiens, Calu-6;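 further: growth of human Calu-6 cells, read out by a cell viability assay, IC50 marking inhibition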
Description: SANGER: Inhibition of human Calu-6 cell growth in a cell viability assay.

ACN = format: functional, cell-based, Homo sapiens; conditions: Homo sapiens, ACN;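 further: growth inhibition of the human ACN cell line, read out via cell viability testing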
Description: SANGER: Inhibition of human ACN cell growth in a cell viability assay.

DU-4475 = format: functional, cell-based, Homo sapiens; conditions: Homo sapiens, DU-4475
Description: SANGER: Inhibition of human DU-4475 cell growth in a cell viability assay.

NCI-H226 = format: functional, cell-based, Homo sapiens; conditions: Homo sapiens, NCI-H226;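 further: cell viability read-out used to gauge growth inhibition of the cells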
Description: SANGER: Inhibition of human NCI-H226 cell growth in a cell viability assay.

HEL = format: functional, cell-based, Homo sapiens; conditions: Homo sapiens, HEL;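 further: growth inhibition of HEL cells, read out with a cell viability assay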
Description: SANGER: Inhibition of human HEL cell growth in a cell viability assay.

JAR = format: functional, cell-based, Homo sapiens; conditions: Homo sapiens, JAR;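 further: growth inhibition of human JAR cells determined with a cell viability assay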
Description: SANGER: Inhibition of human JAR cell growth in a cell viability assay.

SCH = format: functional, cell-based, Homo sapiens; conditions: Homo sapiens, SCH;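 further: growth inhibition of human SCH cells, read out in a cell viability assay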
Description: SANGER: Inhibition of human SCH cell growth in a cell viability assay.

NCI-H1092 = format: functional, cell-based, Homo sapiens; conditions: Homo sapiens, NCI-H1092;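 further: cell growth inhibition measured with a cell viability assay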
Description: SANGER: Inhibition of human NCI-H1092 cell growth in a cell viability assay.

AM-38 = format: functional, cell-based, Homo sapiens; conditions: Homo sapiens, AM-38;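 further: growth inhibition of AM-38 cells of human origin, read out by a cell viability assay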
Description: SANGER: Inhibition of human AM-38 cell growth in a cell viability assay.

HCC2218 = format: functional, cell-based, Homo sapiens; conditions: Homo sapiens, HCC2218;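 further: cell viability assay read-out, with IC50 given as the concentration that inhibits growth of the cell line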
Description: SANGER: Inhibition of human HCC2218 cell growth in a cell viability assay.

SNU-5 = format: functional, cell-based, Homo sapiens; conditions: Homo sapiens, SNU-5;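 further: cell viability readout used to measure growth inhibition in human NCI-SNU-5 cells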
Description: SANGER: Inhibition of human NCI-SNU-5 cell growth in a cell viability assay.

Becker = format: functional, cell-based, Homo sapiens; conditions: Homo sapiens, Becker;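 further: growth inhibition of Becker cells, read out with a cell viability assay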
Description: SANGER: Inhibition of human Becker cell growth in a cell viability assay.

LNCaP-Clone-FGC = format: functional, cell-based, Homo sapiens; conditions: Homo sapiens, LNCaP-Clone-FGC
Description: SANGER: Inhibition of human LNCaP-Clone-FGC cell growth in a cell viability assay.

TE-10 = format: functional, cell-based, Homo sapiens; conditions: Homo sapiens, TE-10;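 further: growth inhibition of TE-10 cells, measured by a cell viability assay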
Description: SANGER: Inhibition of human TE-10 cell growth in a cell viability assay.

LC-2-ad = format: functional, cell-based, Homo sapiens; conditions: Homo sapiens, LC-2-ad;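 further: growth inhibition of human LC-2-ad cells, read out with a cell viability assay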
Description: SANGER: Inhibition of human LC-2-ad cell growth in a cell viability assay.

EW-1 = format: functional, cell-based, Homo sapiens; conditions: Homo sapiens, EW-1;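 further: growth inhibition of the human EW-1 cell line, read out by a cell viability assay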
Description: SANGER: Inhibition of human EW-1 cell growth in a cell viability assay.

SK-LMS-1 = format: functional, cell-based, Homo sapiens; conditions: Homo sapiens, SK-LMS-1;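 further: growth inhibition of human SK-LMS-1 cells, read out with a cell viability assay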
Description: SANGER: Inhibition of human SK-LMS-1 cell growth in a cell viability assay.

C8166 = format: functional, cell-based, Homo sapiens; conditions: Homo sapiens, C8166;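 further: growth inhibition of human C8166 cells measured by a cell viability assay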
Description: SANGER: Inhibition of human C8166 cell growth in a cell viability assay.

BT-474 = format: functional, cell-based, Homo sapiens; conditions: Homo sapiens, BT-474
Description: SANGER: Inhibition of human BT-474 cell growth in a cell viability assay.

HuTu80 = format: functional, cell-based, Homo sapiens, HUTU-80; conditions: Homo sapiens, HuTu80;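 further: growth inhibition of HuTu80 human cells, determined with a cell viability readout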
Description: SANGER: Inhibition of human HUTU-80 cell growth in a cell viability assay.

LB996-RCC = format: functional, cell-based, Homo sapiens; conditions: Homo sapiens, LB996-RCC
Description: SANGER: Inhibition of human LB996-RCC cell growth in a cell viability assay.

UACC-257 = format: functional, cell-based, Homo sapiens; conditions: Homo sapiens, UACC-257
Description: SANGER: Inhibition of human UACC-257 cell growth in a cell viability assay.

KM12 = format: functional, cell-based, Homo sapiens; conditions: Homo sapiens, KM12;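 further: KM12 cell growth inhibition, read out with a cell viability assay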
Description: SANGER: Inhibition of human KM12 cell growth in a cell viability assay.

QIMR-WIL = format: functional, cell-based, Homo sapiens; conditions: Homo sapiens, QIMR-WIL;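 further: growth inhibition of QIMR-WIL cells, read out with a cell viability assay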
Description: SANGER: Inhibition of human QIMR-WIL cell growth in a cell viability assay.

CC(=O)O[C@H]1C(=O)[C@@]2(C)[C@H]([C@H](OC(=O)c3ccccc3)[C@]3(O)C[C@H](OC(=O)[C@H](O)[C@@H](NC(=O)c4ccccc4)c4ccccc4)C(C)=C1C3(C)C)[C@]1(OC(C)=O)CO[C@@H]1C[C@@H]2O [PACLITAXEL]
IC50 (RS4-11): 8.36 nM | IC50 (SJSA-1): 17.7 nM | IC50 (MZ1-PC): 0.729 nM | IC50 (MZ7-mel): 40.4 nM | IC50 (A498): > 102 nM | IC50 (SK-MEL-2): > 102 nM | IC50 (NB5): > 102 nM | IC50 (TE-9): 3.26 nM | IC50 (DMS-79): > 102 nM | IC50 (Ramos-2G6-4C10): > 102 nM | IC50 (RXF 393): 12.6 nM | IC50 (NCI-H446): 21.1 nM | IC50 (SW684): > 102 nM | IC50 (SK-PN-DW): 11.1 nM | IC50 (TE-6): 5.7 nM | IC50 (NCI-H69): 17.8 nM | IC50 (HT): 80.9 nM | IC50 (DB): > 102 nM | IC50 (U-87 MG): > 102 nM | IC50 (NH-12): > 102 nM | IC50 (HT-144): 8 nM | IC50 (D-247MG): > 102 nM | IC50 (D-263MG): > 102 nM | IC50 (NB10): > 102 nM | IC50 (NCI-H2126): 27.7 nM | IC50 (Calu-6): 10.1 nM | IC50 (ACN): 3.16 nM | IC50 (DU-4475): 42.4 nM | IC50 (NCI-H226): > 102 nM | IC50 (HEL): 41.4 nM | IC50 (JAR): 29.5 nM | IC50 (SCH): > 102 nM | IC50 (NCI-H1092): > 102 nM | IC50 (AM-38): > 102 nM | IC50 (HCC2218): > 102 nM | IC50 (SNU-5): 17 nM | IC50 (Becker): 7.2 nM | IC50 (LNCaP-Clone-FGC): > 102 nM | IC50 (TE-10): 1.54 nM | IC50 (LC-2-ad): 0.317 nM | IC50 (EW-1): 3.71 nM | IC50 (SK-LMS-1): 4.01 nM | IC50 (C8166): > 102 nM | IC50 (BT-474): > 102 nM | IC50 (HuTu80): 1.68 nM | IC50 (LB996-RCC): 77.1 nM | IC50 (UACC-257): 48.5 nM | IC50 (KM12): 6.37 nM | IC50 (QIMR-WIL): 10.3 nM

N[C@@H](CSC(c1ccccc1)(c1ccccc1)c1ccccc1)C(=O)O [S-TRITYL-L-CYSTEINE]
IC50 (RS4-11): 1300 nM | IC50 (SJSA-1): 750 nM | IC50 (MZ1-PC): 1630 nM | IC50 (MZ7-mel): 3180 nM | IC50 (A498): > 5120 nM | IC50 (SK-MEL-2): > 5120 nM | IC50 (NB5): > 5120 nM | IC50 (TE-9): 915 nM | IC50 (DMS-79): > 5120 nM | IC50 (Ramos-2G6-4C10): 1550 nM | IC50 (RXF 393): > 5120 nM | IC50 (NCI-H446): 2590 nM | IC50 (SW684): > 5120 nM | IC50 (SK-PN-DW): 1350 nM | IC50 (TE-6): 3900 nM | IC50 (NCI-H69): 3190 nM | IC50 (HT): 2690 nM | IC50 (DB): > 5120 nM | IC50 (U-87 MG): > 5120 nM | IC50 (NH-12): > 5120 nM | IC50 (HT-144): 310 nM | IC50 (D-247MG): > 5120 nM | IC50 (D-263MG): > 5120 nM | IC50 (NB10): > 5120 nM | IC50 (NCI-H2126): 2110 nM | IC50 (Calu-6): 427 nM | IC50 (ACN): 1460 nM | IC50 (DU-4475): 1510 nM | IC50 (NCI-H226): > 5120 nM | IC50 (HEL): 2750 nM | IC50 (JAR): 941 nM | IC50 (SCH): 2500 nM | IC50 (NCI-H1092): > 5120 nM | IC50 (AM-38): > 5120 nM | IC50 (HCC2218): > 5120 nM | IC50 (SNU-5): > 5120 nM | IC50 (Becker): 616 nM | IC50 (LNCaP-Clone-FGC): > 5120 nM | IC50 (TE-10): 730 nM | IC50 (LC-2-ad): 537 nM | IC50 (EW-1): 1510 nM | IC50 (SK-LMS-1): > 5120 nM | IC50 (C8166): > 5120 nM | IC50 (BT-474): > 5120 nM | IC50 (HuTu80): 546 nM | IC50 (LB996-RCC): 2900 nM | IC50 (UACC-257): > 5120 nM | IC50 (KM12): 4670 nM | IC50 (QIMR-WIL): > 5120 nM
